From patent US10226433B2, “Use of cannabinoids in the treatment of degenerative skeletal muscle diseases” (GW Research Limited, priority 2014, dated 2019)

Assays:
Mouse C2C12 myoblasts [1] = assay: C2C12 myoblast differentiation, qPCR of Myog and Tnnt-1 mRNA; assay type: cell-based; details: 24 h in DM, C2C12 cells, vs vehicle
Procedure: (§1) Mouse C2C12 myoblasts were propagated in a growth medium (GM) composed of Dulbecco's modified Eagle's medium supplemented with 10% fetal bovine serum (FBS), 50 U/ml penicillin plus 50 μg/ml streptomycin, and 1% L-glutamine (Invitrogen, Milan, Italy), in a humidified atmosphere of 95% air/5% CO2 at 37° C.
(§2) Exposure of proliferating C2C12 cells for 24 to 72 h to a lower (from 10% to 0.1%) FBS concentration, plus the addition of 5 μg/ml insulin and 5 μg/ml transferrin (differentiation medium, DM), induced their differentiation into myotubes.
(§3) Total RNA was isolated from […] by use of the TRI-Reagent (Life Technology, Milan, Italy), reacted with DNase-I (1 U/μl; Sigma-Aldrich) following the manufacturer's instructions, and then quantified by spectrophotometric analysis.
[…]. Final preparation of RNA was considered DNA- and protein-free if the ratio between readings at 260/280 nm was >1.7. The purified mRNA was reverse-transcribed by use of reverse transcriptase (enzyme-VILO) (Life Technology, Milan, Italy). Quantitative real-time PCR was carried out in CFX384 real time
(§4) PCR detection system (Bio-Rad, Segrate MI, Italy) with specific primers by the use of SYBR Green detection (Bio-Rad, Segrate MI, Italy). Samples were amplified simultaneously in quadruplicate in one-assay run with a non-template control blank for each primer pair to control for contamination or primer-dimers formation, and the ct (cycle threshold) value for each experimental group was determined.
(§5) The housekeeping genes (the ribosomal protein S16) has been used as an internal control to normalize the ct values, using the 2-dCt formula; differences in mRNA content between groups were as expressed as 2-ddct, as previously described (Iannotti et al. 2013)
In order to gain information about the potential effects of phytocannabinoids on myoblast differentiation, C2C12 cells were induced to differentiate for 24-48 h in DM in the presence or absence of various phytocannabinoids.
qPCR analysis was then utilized to evaluated the expression level of the canonical developmentally regulated skeletal markers Myog and Tnnt-1.

[2] = test system: Primary human satellite cells (SC); assay: Human satellite cell differentiation, qPCR of Myog, Tnnt-1 and MyHC mRNA; assay type: cell-based; details: 5 days of SC exposure to DM, vs vehicle
Procedure: (§6) Primary human satellite cells (SC) were purchased from Innoprot Inc (Bizkaia-Spain) and propagated in a growth medium (GM) which contains essential and non-essential amino acids, vitamins, organic and inorganic compounds, hormones, growth factors, trace minerals and a low concentration of fetal bovine serum (5%) (Innoprot lnc/Bizkaia-Spain) in a humidified atmosphere of 95% air/5% CO2 at 37° C.
(§7) Exposure of proliferating satellite cells 4-5 days to a lower (from 10% to 0.1%) FBS concentration, plus the addition of 5 μg/ml insulin and 5 μg/ml transferrin (differentiation medium, DM), induced their differentiation into myotubes.
As described in Example 1
To further investigate the effects of the cannabinoids CBD, CBDV and THCV on human skeletal muscle precursor cell differentiation qPCR analysis was used.
In particular, skeletal muscle cell differentiation was quantified by measuring the transcript levels of myogenin (Myog), Troponin (Tnnt-1) and Myosin Heavy Chain (MyHC). All of which are widely considered muscle-specific markers, required for myotube formation.

[3] = test system: Primary human satellite cells (SC); assay: Phase contrast microscopy of differentiating primary human satellite cells; assay type: cell-based; details: for Morphology of differentiating SC with respect to vehicle (DMSO) control: after 4 and 5 days of exposure to DM
Procedure: as §6, §7
Differentiating primary human satellite cells were also examined in phase contrast mode by means of conventional light microscopy. […] In particular, after 5 days of incubation in the presence of phytocannabinoids, the cells appeared more fused and with mature myotubes being larger in size.

Mouse C2C12 myoblasts [4] = assay: Western blot analysis of MyHC protein in differentiating C2C12 cells; assay type: cell-based; details: 72 h exposure to DM+1 μM CBD, relative to control conditions
Procedure: as §1, §2
Cells were washed two times in cold PBS and lysed with lysis solution (150 mM NaCl, 1 mM EDTA, pH 7.4, 10 mM Tris-HCl, pH 8, 1% SDS, and protease inhibitors). Lysates (50-60 ug) were boiled 5 min in Laemmli SDS loading buffer and separated by 8% SDS-polyacrylamide gel electrophoresis. Filters were incubated overnight at 4° C. with a mouse anti-MyHC (dilution, 1:1000; Millipore).
An anti-tubulin antibody (dilution, 1:5000; Sigma-Aldrich) was used to check for equal protein loading. Reactive bands were detected by chemiluminescence (ECL-plus; GE Healthcare). Images were analysed on a ChemiDoc station with Quantity one software (Bio-Rad, Segrate, Italy).
The effect of CBD 1 μM on myotube formation was confirmed by western blot analysis.

Mouse C2C12 myoblasts [5] = assay: Short-term (10 min) CBD exposure of differentiating C2C12 myoblasts, qPCR; assay type: cell-based; details: DM+1 μM for 10 min
Procedure: as §1, §2, §3, §4, §5
The potential effect of short term CBD exposure at 1 μM on differentiating C2C12 cells was also tested.
The day after plating, C2C12 myoblasts were exposed to DM in presence or not of 1 μM CBD for 10 min.

[6] = Body mass of mdx mice over 16 weeks; assay type: in vivo, mouse; details: for Total body mass / Total body mass, difference to vehicle: at week 15, CBD 120 mg/kg/day, DFZ 1.2 mg/kg/day
Procedure: (§8) Mdx mice were bred and housed according to Home Office regulations. At 6 weeks of age groups of female mdx mice (control n=18, deflazcort n=18, CBD n=19) were acclimatised to 3.5% Kolliphor/water (v/v) in drinking water.
(§9) Control groups were maintained on 3.5% Kolliphor for the duration of the study. Deflazacort (DFZ) groups were maintained on 3.5% Kolliphor for 2 weeks and then maintained on 1.2 mg/kg/day DFZ in 3.5% Kolliphor for 16 weeks (n=8).
(§10) CBD groups were acclimatised to 3.5% Kolliphor for 7 days. On day 7, 3.5% Kolliphor was supplemented with CBD at 75 mg/kg/day for 3 days; CBD was then increased to 120 mg/kg/day for 16 weeks (n=8).
Mice and bottles were weighed twice weekly to monitor body mass and consumption. Mice are housed in groups, therefore average consumption is calculated.

Mdx mice [7] = assay: Real time PCR of gastrocnemius muscle of mdx mice at week 4; assay type: in vivo, mouse
Procedure: as §8, §9, §10
Gastrocnemius muscle was recovered at week 4 and relative gene expressions were determined.
RNA was extracted from cells following treatment with CBD. Control RNA was extracted from the control group (RNeasy kit, Qiagen). 2 μg of RNA from each sample was reversed transcribed using oligo dT primers (rt nanoscript 2, Primer Design).
Stable endogenous control genes (Pak1lip1, Htatfs1) were identified using the mouse GeNorm Kit qbase+software (Primer Design).
Real time PCR was conducted using SYBR green (Life Technologies) on an AB Biosystems Thermocycler. All real time PCR experiments were conducted with the following reaction conditions. Initial 95° C. 10 mins, followed by 40 cycles of 95° C. for 15 secs, 60° C. for 1 min, followed by melt curve analysis.
Relative levels of gene expression were determined using the standard curve method and are expressed relative to the average of the endogenous controls.

Mdx mice [8] = assay: CD8 positive cells in spleens of mdx mice at week 4; assay type: in vivo, mouse; details: spleen
Procedure: as §8, §9, §10
Spleens were recovered at week 4 and CD8 positive cells were analysed.

Compound: CCCc1cc(O)c2c(c1)OC(C)(C)[C@@H]1CCC(C)=C[C@@H]21 [THCV, Tetrahydrocannabivarin]
- Myogenin (Myog) mRNA expression level (Mouse C2C12 myoblasts [1]; 1 μM): did not produced significant effects
- Troponin (Tnnt-1) mRNA expression level (Mouse C2C12 myoblasts [1]; 1 μM): did not produced significant effects
- Myogenin (Myog) mRNA expression level (Mouse C2C12 myoblasts [1]; 3 μM): did not produced significant effects
- Troponin (Tnnt-1) mRNA expression level (Mouse C2C12 myoblasts [1]; 3 μM): did not produced significant effects
- MyHC transcript level ([2]; 3 μM): significantly increased
- Myog transcript level ([2]; 3 μM): significantly increased
- Tnnt-1 transcript level ([2]; 3 μM): significantly increased
- Morphology of differentiating SC with respect to vehicle (DMSO) control ([3]; 3 μM): clear morphological differences
- Cell fusion and size of mature myotubes ([3]; after 5 days of incubation, CBD 1 μM, CBDV and THCV 3 μM): more appreciable

Compound: C=C(C)[C@@H]1CCC(C)=C[C@H]1c1c(O)cc(CCCCC)cc1O [CBD, Cannabidiol]
- Myogenin (Myog) mRNA expression level (Mouse C2C12 myoblasts [1]; 1 μM): significant increase
- Troponin (Tnnt-1) mRNA expression level (Mouse C2C12 myoblasts [1]; 1 μM): significant increase
- Myosin Heavy Chain (MyHC) protein expression (Mouse C2C12 myoblasts [4]): significantly increased
- Myog transcript level (Mouse C2C12 myoblasts [5]; then DM without drug for 3 h): significantly higher
- Tnnt-1 transcript level (Mouse C2C12 myoblasts [5]; then DM without drug for 3 h): significantly higher
- Myog transcript level (Mouse C2C12 myoblasts [5]; then DM without drug for 24 h): significantly higher
- Tnnt-1 transcript level (Mouse C2C12 myoblasts [5]; then DM without drug for 24 h): significantly higher
- MyHC transcript level ([2]; 1 μM): significantly increased
- Myog transcript level ([2]; 1 μM): significantly increased
- Tnnt-1 transcript level ([2]; 1 μM): significantly increased
- Morphology of differentiating SC with respect to vehicle (DMSO) control ([3]; 1 μM): clear morphological differences
- Total body mass [6]: 29.42 g
- Total body mass, difference to vehicle [6]: 5.6%
- Total body mass compared with vehicle group ([6]; up to week 4, CBD 120 mg/kg/day in drinking water): did not differ
- Mitochondrially encoded NADH dehydrogenase 2 (MT-ND2) relative gene expression, upregulation (Mdx mice [7]; n=4): 253.2%
- PGC1a relative gene expression, upregulation (Mdx mice [7]; n=9): 125.8%
- Sirtuin-1 (Sirt1) relative gene expression, upregulation (Mdx mice [7]; n=9): 84.9%
- Total percentage CD8 population, difference to vehicle (Mdx mice [8]; n=9): 19.7%
- Total percentage CD8 population (Mdx mice [8]; n=9, vehicle 10.9%): 8.7%

Compound: C=C(C)[C@@H]1CCC(C)=C[C@H]1c1c(O)cc(CCCCC)c(C(=O)O)c1O [CBDA, Cannabidiolic acid]
- Myogenin (Myog) mRNA expression level (Mouse C2C12 myoblasts [1]; 1 μM): significantly reduced
- Troponin (Tnnt-1) mRNA expression level (Mouse C2C12 myoblasts [1]; 1 μM): significantly reduced
- Myogenin (Myog) mRNA expression level (Mouse C2C12 myoblasts [1]; 3 μM): significantly reduced
- Troponin (Tnnt-1) mRNA expression level (Mouse C2C12 myoblasts [1]; 3 μM): significantly reduced

Compound: C=C(C)[C@@H]1CCC(C)=C[C@H]1c1c(O)cc(CCC)cc1O [CBDV, Cannabidivarin]
- Myogenin (Myog) mRNA expression level (Mouse C2C12 myoblasts [1]; 1 μM): significant increase
- Troponin (Tnnt-1) mRNA expression level (Mouse C2C12 myoblasts [1]; 1 μM): significant increase
- Myogenin (Myog) mRNA expression level (Mouse C2C12 myoblasts [1]; 3 μM): significant increase
- Troponin (Tnnt-1) mRNA expression level (Mouse C2C12 myoblasts [1]; 3 μM): significant increase
- MyHC transcript level ([2]; 3 μM): significantly increased
- Myog transcript level ([2]; 3 μM): significantly increased
- Tnnt-1 transcript level ([2]; 3 μM): significantly increased
- Morphology of differentiating SC with respect to vehicle (DMSO) control ([3]; 3 μM): clear morphological differences

Compound: CCCCCc1cc(O)c(C/C=C(\C)CCC=C(C)C)c(O)c1 [CBG, Cannabigerol]
- Myogenin (Myog) mRNA expression level (Mouse C2C12 myoblasts [1]; 3 μM): significantly reduced
- Troponin (Tnnt-1) mRNA expression level (Mouse C2C12 myoblasts [1]; 3 μM): significantly reduced

Compound: CC(=O)OCC(=O)[C@@]12N=C(C)O[C@@H]1C[C@H]1[C@@H]3CCC4=CC(=O)C=C[C@]4(C)[C@H]3[C@@H](O)C[C@@]12C [deflazacort, Deflazacort, reference compound]
- Total body mass [6]: 26.26 g
- Total body mass, difference to vehicle [6]: 15.8%
- Total body mass, lighter than vehicle and CBD groups ([6]; up to week 4, deflazacort 1.2 mg/kg/day in drinking water): 8.9%
- Effect on total percentage CD8 population (Mdx mice [8]): unaffected
